According to patent US7378397B2 (The Provost, Fellows and Scholars of the College of the …, priority 2000, dated 2008):
Values after ≈ are worked out from the molar mass of the structure shown. Where a SMILES comes first, the peptide text is derived from it. [ ]: non-standard residue; d: D form. The star is where a group is joined. AMC = Cc1cc(=O)oc2cc(N*)ccc12; pGlu = O=C1CC[C@@H](C(=O)O)N1; Pip = O=C(O)[C@@H]1CCCCN1

Key:
TRH-DE [1] = target: T1, TRH-DE (Sus scrofa, UniProt A0A287AP33); test: continuous coupled fluorometric TRH-DE assay (TRHAMC substrate, DPP-IV coupling enzyme); assay type: biochemical, porcine; conditions: for inhibition at 1000 µM: peptide 1 mM
T1 construct: The inventor purified TRH-DE from porcine brain according to purification procedures previously published by Dr. K. Bauer; from tissue; host or cells: porcine brain (TRH-DE); bovine kidney (DPP-IV, gift from Dr. C. H. Williams)
T1 sequence (A0A287AP33 1-1066): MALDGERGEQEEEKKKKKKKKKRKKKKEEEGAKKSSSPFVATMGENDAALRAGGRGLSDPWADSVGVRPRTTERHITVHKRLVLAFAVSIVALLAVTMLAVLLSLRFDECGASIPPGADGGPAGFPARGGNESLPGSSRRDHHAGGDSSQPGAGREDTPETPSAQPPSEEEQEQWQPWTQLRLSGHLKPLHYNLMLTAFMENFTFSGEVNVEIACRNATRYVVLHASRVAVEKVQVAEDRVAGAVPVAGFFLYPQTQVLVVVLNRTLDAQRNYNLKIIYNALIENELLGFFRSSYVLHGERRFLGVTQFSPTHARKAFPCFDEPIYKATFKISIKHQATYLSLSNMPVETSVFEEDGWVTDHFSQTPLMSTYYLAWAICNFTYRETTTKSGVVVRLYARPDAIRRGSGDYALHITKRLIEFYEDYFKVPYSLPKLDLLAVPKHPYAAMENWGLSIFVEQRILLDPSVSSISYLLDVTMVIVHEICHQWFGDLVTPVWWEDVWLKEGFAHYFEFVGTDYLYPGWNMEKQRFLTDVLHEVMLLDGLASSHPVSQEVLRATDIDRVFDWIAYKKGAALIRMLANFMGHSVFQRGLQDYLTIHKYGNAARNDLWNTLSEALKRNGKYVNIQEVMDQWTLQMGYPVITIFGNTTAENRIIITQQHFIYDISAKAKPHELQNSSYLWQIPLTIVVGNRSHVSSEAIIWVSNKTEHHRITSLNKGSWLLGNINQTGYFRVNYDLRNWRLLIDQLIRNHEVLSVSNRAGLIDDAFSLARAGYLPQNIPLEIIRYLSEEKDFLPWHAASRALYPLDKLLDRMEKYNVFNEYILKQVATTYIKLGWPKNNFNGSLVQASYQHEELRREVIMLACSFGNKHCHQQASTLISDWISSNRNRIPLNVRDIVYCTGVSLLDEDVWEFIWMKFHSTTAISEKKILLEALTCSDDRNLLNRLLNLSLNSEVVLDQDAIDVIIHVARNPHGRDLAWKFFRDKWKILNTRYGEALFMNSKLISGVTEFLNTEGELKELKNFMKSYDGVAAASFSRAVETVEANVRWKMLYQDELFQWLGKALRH
Procedure: (§1) The inventor purified TRH-DE from porcine brain according to purification procedures previously published by Dr. K. Bauer, (Max-Planck-Institut, Hannover, Germany) (1). TRH-DE was purified almost 20,000 fold. […] Dipeptidyl peptidase IV (DPP-IV) (EC 3.4.14.5), purified from bovine kidney (7.7 mg ml^−1, specific activity of 17.5 U mg^−1 with Gly-ProAMC as substrate), was obtained as a gilt from Dr. C. H. Williams (Queen's University Belfast, U.K). (DPP-IV was used as the coupling enzyme used in the fluorometric assays).
(§2) One unit (U) of enzyme activity was defined as that amount catalysing the formation of one μmol of product in one minute under the standard conditions employed. All incubations in the assays described below were carried out in 20 mM potassium phosphate buffer, pH 7.5, at 37° C.
Kinetic analysis of peptides that are not hydrolysed by TRH-DE. A recently-developed continuous coupled fluorometric assay (23) was used to investigate the ability of those library peptides that were not hydrolysed by TRH-DE to inhibit TRHAMC degradation by TRH-DE. In this assay, TRHAMC is the substrate and dipeptidyl peptidase IV (DPP-IV) (EC 3.4.14.5) is the coupling enzyme. The reaction sequence is:
The reaction was monitored continuously by measuring the increase in AMC fluorescence. A linear progress curve with no discernible lag period was observed when the reaction was monitored over a period of 10 minutes. Nevertheless, data sampling was not commenced until 100 s from the start of the reaction to ensure measurements were taken after a steady state had been reached (see Ref. 23).
In a preliminary experiment, the peptides were screened for their ability to inhibit TRH-DE activity. The initial rate of TRHAMC hydrolysis by TRH-DE was measured by incubating 5 μM TRHAMC with 1.23 μg DPP-IV and 0.32 μg TRH-DE, both in the absence and presence of each library peptide (1 mM final concentration) under standard assay conditions (23). In each case the percentage inhibition (i%) was calculated using the equation i%=100(1-vi/vo), where vi and vo are the initial velocities in the presence and absence of peptide, respectively.
Since these peptides were poor inhibitors they were not examined further. The Ki values for the remainder of the peptides were determined by measuring their effects on TRHAMC degradation by TRH-DE using the continuous assay. Data were collected in duplicate at five different substrate concentrations and at least three different concentrations of each peptide.
Reversibility and time dependence of the inhibition produced by Glp-Gln-ProNH2, Glp-Asn-ProNH2 and Glp-Asn-ProAMC were examined by initially preincubating TRH-DE with each peptide at 37° C. for various periods up to 75 min. To investigate time dependence, the enzyme-peptide solution was subsequently added to the reaction mixture containing TRHAMC, DPP-IV, buffer and peptide, and TRH-DE activity was measured using the continuous assay. The final concentration of Glp-Gln-ProNH2, Glp-Asn-ProNH2 and Glp-Asn-ProAMC used was 400, 160 and 1 μM, respectively. […] TRH-DE activity was not affected by pre-incubation at 37° C.
Fluorescence measurements were made using a Perkin Elmer LS 50B Luminescence Spectrometer fitted with a thernostated cell holder. Wavelengths for excitation and emission were set at 370 nm and 440 nm, respectively, with slit widths of 10 nm and 5 nm, respectively.

Male Wistar rats = test: behavioural effects (WDS, locomotion) after i.c.v. administration; assay type: in vivo, rat; conditions: 5 μg alone, 30 min
Procedure: Methods: Behavioural studies were conducted using experimentally naïve Male Wistar rats (200-250 g) maintained in a temperature controlled (21° C.), artificially-lighted (12 hr light cycle) room with free access to food and water. Behavioural effects of […] following intra-cerebroventricular (i.c.v.) administration: Animals were implanted with guide cannula aimed at the lateral cerebral ventricles (AP-0.92 mm, ML-1.5 mm, DV-2.6 mm relative to Bregma, atlas of Paxinos & Watson) under halothane anaesthesia. One week following surgery placement of the cannulae was assessed by the ability of a microinjection of angiotensin II (200 ng in 1 μl) to induce drinking behaviour. […] They were then administered either vehicle (1 μl 0.9% saline) or […] (5 μg in 1 μl) followed 1 minute later by vehicle (1 μl 0.9% saline) or TRH (5 μg in 1 μl). One minute after the last i.c.v. injection animals were placed back into the perspex cage and their behaviour monitored by a computer automated tracking system for 30 minutes (Ethovision Pro, Noldus) to provide measures of locomotor activity. Animals were videotaped for subsequent blind analysis of WDS behaviour by a trained observer. A threshold dose of 5 μg TRH was chosen for i.c.v. administration so that if […] enhanced responses to TRH, this would be clearly visible. The statistical significance of differences between behavioural effects of treatments was determined using the Student's t-test or ANOVA, followed by a post-ANOVA test, as indicated. Radioligand binding data were analysed using non-linear curve fitting software (Prism, Graph Pad Software Inc.). IC50 values calculated from competition experiments were converted to Ki values using the Cheng-Prusoff (41) equation Ki=IC50/(1+L/Kd), where L=ligand concentration and Kd=the apparent dissociation constant for [^3[…].

[2] = target: TRH receptors in rat cortical membranes; test: radioligand binding to ^3H-3MeHis-TRH-labelled receptors in rat cortex; conditions: competition with 6-8 nM ^3H-3MeHis-TRH, Cheng-Prusoff
Procedure: Evaluation of the ability of TRH, Glp-Asn-ProNH2, and Glp-Asn-ProAMC to bind to ^3H-3MeHis-TRH-labelled receptors in rat cortex: Radioligand binding assays were conducted to investigate the possibility that the two TRH-DE inhibitors might exert their effects by acting independently at TRH receptors in the brain.
Cortex tissue from male Sprague-Dawley rats (250 g) was dissected out, weighed and homogenised in 30 volumes of ice-cold sodium phosphate buffer (0.02 M, pH 7.5). The homogenates were centrifuged at 30,000 g at 4° C. for 30 min. The supernatant was discarded and the pellet was resuspended at 100 mg wet wt/ml in buffer containing 177 μM bacitracin. […] Non-specific binding was defined in the presence of 10 μM TRH.
The statistical significance of differences between behavioural effects of treatments was determined using the Student's t-test or ANOVA, followed by a post-ANOVA test, as indicated. Radioligand binding data were analysed using non-linear curve fitting software (Prism, Graph Pad Software Inc.). IC50 values calculated from competition experiments were converted to Ki values using the Cheng-Prusoff (41) equation Ki=IC50/(1+L/Kd), where L=ligand concentration and Kd=the apparent dissociation constant for [^3H]-[3-MeHis]TRH.

TRH-DE [3] = conditions: published observation (21); cited from earlier work
TRH-DE [4] = target: T1, TRH-DE; test: HPLC assay of peptide hydrolysis by TRH-DE (Glp production); assay type: biochemical, porcine; conditions: for hydrolysis by TRH-DE (release of Glp): 1 mM peptide incubated with TRH-DE 18 h at 37° C., HPLC; for Rate of hydrolysis: peptide 1 mM, 37° C., Glp production by HPLC, mean±S.D.
Procedure: as §1, §2
Kinetic analysis of the peptide library using HPLC—The ability of each peptide in the library to act as a TRH-DE substrate was assessed using HPLC. As an initial screen, 1 mM peptide was incubated with 0.8 μg TRH-DE in a total volume of 1 ml for 18 h at 37° C. Control samples were included in which peptide (1 mM) or Glp (0.2 mM-0.8 mM) were incubated under identical conditions in the absence of TRH-DE. TRH-DE activity was terminated by the addition of TFA (0.15% v/v) and samples were then analysed using HPLC as described previously (24). Products resulting from TRH-DE hydrolysis could be separated on a C-18 reverse-phase column (Hypersil, UK) using a linear gradient of 0-70% acetonitrile in 0.08% (v/v) TFA. The concentration of Glp formed by the action of TRH-DE on the peptide library was measured by UV absorbance at 206 nm with a quantitative detection limit of 0.1 mM for a 40 μl injection volume, employing a signal to noise ratio of 10. Following the incubation of each peptide with TRH-DE, evidence of Glp in the sample was taken to indicate that the peptide was a TRH-DE substrate.
The rates of hydrolysis for each of those peptides identified as substrates were then compared by measuring Gip production using microassays with shorter incubation times. In these assays peptide (1 mM) was incubated at 37° C. in a total volume of 100 μl. 0.8-3.2 μg TRH-DE and incubations times of 5 min to 18 h were used routinely. Measurements were made in triplicate. The rate of TRH-OH hydrolysis was also measured by this method.

TRH-DE [5] = target: T1, TRH-DE; conditions: From Ref. 23 (inventor's publication); cited from earlier work
[6] = non-linear regression, five TRHAMC concentrations and at least three peptide concentrations, mean±S.D. (n=3)

| Ki (TRH-DE [1]; [6]) [µM] | inhibition at 1000 µM (TRH-DE [1]; 5 μM TRHAMC substrate) [%] | hydrolysis by TRH-DE (release of Glp) (TRH-DE [4]) | Rate of hydrolysis (TRH-DE [4]) | Compound | substrate for TRH-DE (TRH-DE [3]) | other results |
| --- | --- | --- | --- | --- | --- | --- |
| 0.97 ± 0.08 | – | – | – | Cc1cc(=O)oc2cc(NC(=O)[C@@H]3CCCN3C(=O)[C@H](CC(N)=O)NC(=O)[C@@H]3CCC(=O)N3)ccc12 [Glp-Asn-ProAMC, Glp-Asn-Pro-7amido-4-methyl coumarin] ([pGlu]-Asn-Pro-{AMC}) | – | Ki (TRH-DE [1]; calculated from percent inhibition measured in duplicate at 5 μM substrate): 0.41 µM; mode of inhibition of TRH-DE (TRH-DE [1]; continuous assay, Lineweaver-Burk plot): simple competitive inhibitors; inhibition at 1 µM (TRH-DE [1]; peptide 1 μM, 5 μM TRHAMC substrate): 50%; reversibility and time dependence of inhibition (TRH-DE [1]; preincubation with TRH-DE up to 75 min at 37° C., Glp-Gln-ProNH2 400, Glp-Asn-ProNH2 160, Glp-Asn-ProAMC 1 μM): fully reversible and not time-dependent; solubility (physchem): 1000 µg/mL (≈ 2010 µM); number of WDS compared with vehicle (Male Wistar rats): Neither TRH nor Glp-Asn-ProAMC alone produced a significantly greater number of WDS than vehicle; pKi [2]: 4.32±0.24 |
| – | 17 | No detectable Glp | – | NC(=O)[C@@H]1CCCN1C(=O)[C@H](CCC(=O)O)NC(=O)[C@@H]1CCC(=O)N1 [Glp-Glu-ProNH2] ([pGlu]-Glu-Pro-NH2) | is not | Ki (TRH-DE [1]; estimated from <20% inhibition at 1 mM peptide with the competitive inhibition relationship): > 1000 µM |
| – | – | – | 1.56 ± 0.13 (5) U mg^−1 | NC(=O)[C@@H]1CCCN1C(=O)[C@H](Cc1ccccc1)NC(=O)[C@@H]1CCC(=O)N1 [Glp-Phe-ProNH2] ([pGlu]-Phe-Pro-NH2) | is also a substrate for TRH-DE | – |
| 232 ± 26 | 71 | No detectable Glp | – | NC(=O)[C@@H]1CCCN1C(=O)[C@H](Cc1c[nH]c2ccccc12)NC(=O)[C@@H]1CCC(=O)N1 [Glp-Trp-ProNH2] ([pGlu]-Trp-Pro-NH2) | – | – |
| 500 ± 133 | 40 | No detectable Glp | – | NC(=O)[C@@H]1CCCN1C(=O)[C@@H]1CCCCN1C(=O)[C@@H]1CCC(=O)N1 [Glp-homoPro-ProNH2] ([pGlu]-[Pip]-Pro-NH2) | – | – |
| – | – | – | 3.38 ± 0.18 (3) U mg^−1 | Glp-His-ProOH | – | Km (TRH-DE [5]): 311 µM; Vmax (TRH-DE [4]; estimated from HPLC rates of hydrolysis using Vmax=vo{(Km+[S])/[S]}): 4.43 ± 0.24 (3) U mg^−1 |
